Assay results published in ChEMBL document CHEMBL1135213, “New indene-derivatives with anti-proliferative properties” (Bioorg Med Chem Lett, 2002).
The source made the active and inactive calls. The calls are words filed in the database; no cut-off is given here.

Legend:
MDCK [1] = experiment: Anti-proliferative activity was evaluated by its ability to inhibit proliferation of MDCK-f3 (Madin-Darby canine kidney f3) cell line; type: functional, cell-based, Canis lupus familiaris
NIH3T3 [2] = experiment: Anti-proliferative activity was evaluated by its ability to inhibit proliferation of murine NIH3T3 fibroblasts; type: functional, cell-based, Mus musculus
REF [3] = experiment: Anti-proliferative activity was evaluated by its ability to inhibit proliferation of rat embryonic fibroblasts (REF); type: functional, cell-based
SW480 [4] = experiment: Anti-proliferative activity was evaluated by its ability to inhibit proliferation of SW480 cells; type: functional, cell-based, Homo sapiens
MDCK [5] = experiment: Anti-proliferative activity was evaluated by its ability to inhibit proliferation of MDCK cells; type: functional, cell-based, Canis lupus familiaris
[6] = Inhibition of p21ras protein and Raf kinase in vitro using recombinant proteins; design: unit not given here
[7] = biological target: T1, Cyclooxygenase (Homo sapiens) (UniProt P35354+P23219); settings: Ovis aries
SW480 [8] = experiment: Anti-proliferative activity was evaluated by its ability to inhibit proliferation of SW480 cells; na means Not active; type: functional, cell-based, Homo sapiens
[9] = biological target: T1, Cyclooxygenase (Homo sapiens); experiment: Half-maximal inhibition of the COX activity was measured by the direct analysis of the consumed O2 using isolated sheep seminal vesicles; na means Not active; type: functional; settings: Ovis aries; target entry is the homologue from another species
[10] = Inhibition of p21ras protein and Raf kinase in vitro using recombinant proteins (inactive)
MDCK [11] = experiment: Anti-proliferative activity was evaluated by its ability to inhibit proliferation of MDCK-f3 (Madin-Darby canine kidney f3) cell line; na means Not active; type: functional, cell-based, Canis lupus familiaris
MDCK [12] = experiment: Anti-proliferative activity was evaluated by its ability to inhibit proliferation of MDCK cells; na means Not active; type: functional, cell-based, Canis lupus familiaris
NIH3T3 [13] = experiment: Anti-proliferative activity was evaluated by its ability to inhibit proliferation of murine NIH3T3 fibroblasts; na means Not active; type: functional, cell-based, Mus musculus
REF [14] = experiment: Anti-proliferative activity was evaluated by its ability to inhibit proliferation of rat embryonic fibroblasts (REF); na means Not active; type: functional, cell-based

| Compound | IC50 (MDCK [1]; Canis lupus familiaris, MDCK) [µM] | IC50 (NIH3T3 [2]; Mus musculus, NIH3T3) [µM] | IC50 (REF [3]; Rattus norvegicus, REF) [µM] | IC50 (SW480 [4]; Homo sapiens, SW480) [µM] | IC50 (MDCK [5]; Canis lupus familiaris, MDCK) [µM] | IC50 (SW480 [4]; sw480) [µM] | IC50 (MDCK [5]; mdck) [µM] | Inhibitory activity [6] | Inhibitory activity [7] | also measured |
| --- | --- | --- | --- | --- | --- | --- | --- | --- | --- | --- |
| COc1cccc(C=C2C(C)=C(CC(=O)O)c3cc(F)ccc32)c1 | 300 | 520 | 200 | 360 | 275 |  |  |  |  |  |
| CC1=C(CC(=O)O)c2cc(F)ccc2C1=Cc1ccc(CO)o1 [listing 1 of 3 here] | 130 | 450 | 90 |  |  | 310 | 250 |  |  |  |
| CC1=C(CC(=O)O)c2cc(F)ccc2C1=Cc1ccc(CO)o1 [listing 2 of 3 here] |  |  |  |  |  |  |  | 45 | 570 |  |
| CC1=C(CC(=O)O)c2cc(F)ccc2C1=Cc1ccc(C)o1 [listing 1 of 2 here] |  |  |  |  |  | 80 | 60 |  |  | IC50 (MDCK [1]; mdck): 60 µM; IC50 (NIH3T3 [2]; nih3t3): 60 µM; IC50 (REF [3]; ref): 10 µM |
| COc1ccc(C=C2C(C)=C(CC(=O)O)c3cc(F)ccc32)cc1 | 310 | 480 | 500 |  | 460 |  |  | 10 | 1.6 | IC50 (SW480 [8]): Not Active |
| CSc1ccc(/C=C2/C(C)=C(CC(=O)O)c3cc(F)ccc32)cc1 [SULINDAC SULFIDE] | 200 | 350 | 200 | 200 | 180 |  |  | 210 | 2.6 |  |
| CC1=C(CC(=O)O)c2cc(F)ccc2C1=Cc1ccc([S+](C)[O-])cc1 (stereo unspecified) [SULINDAC] | 320 | 200 | 100 | 800 | 300 |  |  |  |  | Inhibitory activity [9]: inactive; Inhibitory activity [10]: inactive |
| CC1=C(CC(=O)O)c2cc(F)ccc2C1=Cc1ccc(S(=O)(=O)O)o1 |  |  |  |  |  |  |  |  |  | IC50 (MDCK [11]): Not Active; IC50 (MDCK [12]): Not Active; IC50 (NIH3T3 [13]): Not Active; IC50 (REF [14]): Not Active; IC50 (SW480 [8]): Not Active |
| CC1=C(CC(=O)O)c2cc(F)ccc2C1=Cc1ccc(C)o1 [listing 2 of 2 here] |  | 100 | 20 |  |  | 380 | 250 |  |  | IC50 (MDCK [1]; mdck): 310 µM |
| CC1=C(CC(=O)O)c2cc(F)ccc2C1=Cc1ccc(CO)o1 [listing 3 of 3 here] |  |  |  |  |  | 70 | 50 |  |  | IC50 (MDCK [1]; mdck): 120 µM; IC50 (NIH3T3 [2]; nih3t3): 490 µM; IC50 (REF [3]; ref): 80 µM |
| COc1ccccc1C=C1C(C)=C(CC(=O)O)c2cc(F)ccc21 | 360 | 500 | 200 | 850 |  |  |  |  |  |  |
| CC1=C(CC(=O)O)c2cc(F)ccc2C1=Cc1cccs1 | 80 | 400 | 100 | 320 | 470 |  |  |  | 0.03 | Inhibitory activity [10]: inactive |
| CC1=C(CC(=O)O)c2cc(F)ccc2C1=Cc1ccoc1 | 50 | 170 | 30 | 400 | 300 |  |  | 30 | 0.24 |  |
